Calls of active or inactive are those of the source. The rule behind the calls is not given here.
Tests used:
NCI-N87 = assay: Cytotoxicity against human NCI-N87 cells assessed as cell growth inhibition incubated for 3 days by MTT assay; type: functional, cell-based; details: time 3.0 day
[1] = Drug degradation in human plasma at 1 to 10 uM incubated for 2 hrs by LC-MS analysis; type: ADME, cell-free; details: dose 1-10 µM, read-out: Drug degradation
[2] = Clearance in Wistar rat at 2 mg/kg, iv measured after 24 hrs by LC-MS/MS analysis; type: ADME, organism-based; details: in vivo
[3] = Cmax in Wistar rat at 20 mg/kg, po measured for 24 hrs by LC-MS/MS analysis; type: ADME, organism-based; set-up: time 24 hrs, dose 20 mg/kg, route po; details: in vivo
SW480 = assay: Cytotoxicity against human SW480 cells assessed as cell growth inhibition incubated for 3 days by MTT assay; type: functional, cell-based; details: time 3.0 day
[4] = target: Aurora kinase B (Homo sapiens) (UniProt Q96GD4); assay: Disruption of mitotic localization of AURKB in human RPE-MYC H2B-GFP cells assessed as induction of polyploidy by fluorescence high content cell imaging analysis; type: cell-based
Sequence of Aurora kinase B (Homo sapiens) (Q96GD4 whole entry): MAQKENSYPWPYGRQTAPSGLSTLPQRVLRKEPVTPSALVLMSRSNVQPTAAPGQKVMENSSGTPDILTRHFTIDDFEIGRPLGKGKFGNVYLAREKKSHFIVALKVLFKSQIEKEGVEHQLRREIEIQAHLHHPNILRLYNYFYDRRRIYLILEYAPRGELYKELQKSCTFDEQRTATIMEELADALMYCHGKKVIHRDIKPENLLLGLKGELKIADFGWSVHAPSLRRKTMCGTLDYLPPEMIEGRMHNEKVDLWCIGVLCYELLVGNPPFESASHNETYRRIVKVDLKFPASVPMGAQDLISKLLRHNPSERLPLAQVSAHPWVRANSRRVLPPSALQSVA

A549 = assay: Cytotoxicity against human A549 cells assessed as cell growth inhibition incubated for 3 days by MTT assay; type: functional, cell-based; details: time 3.0 day
[5] = Ratio of drug uptake in tumor of BALB/c nude mouse xenografted with human HCT-116 cells at 50 mg/kg, po bid for 7 days and measured at 6 hrs post-last drug administration to MEC for Disruption of mitotic localization of AURKB in human RPE-MYC H2B-GFP cells assessed as induction of polyploidy
Mus musculus = assay: Induction of mitotic arrest in BALB/c nude mouse xenografted with human HCT-116 cells assessed as increase in mitotic index by measuring increase in accumulation of H3Ser10P positive cells in tumor at 50 mg/kg, po bid for 7 days by immunohistochemical staining based analysis relative to control; type: functional; details: time 7 day
[6] = Dose normalized AUC (0 to infinity) in Wistar rat at 2 mg/kg, iv by LC-MS/MS analysis; type: ADME, organism-based; details: in vivo
[7] = target: Aurora kinase B (Homo sapiens) (UniProt Q96GD4); assay: Disruption of mitotic localization of AURKB at the spindle mid-zone and equatorial cortex in human RPE-MYC cells expressing BCL2 at 40 nM measured after 6 hrs by immunofluorescence staining analysis; type: cell-based
[8] = Drug degradation in mouse plasma at 1 to 10 uM incubated for 2 hrs by LC-MS analysis; type: ADME, cell-free; details: dose 1-10 µM, read-out: Drug degradation
HCT-116 = assay: Cytotoxicity against human HCT-116 cells assessed as cell growth inhibition incubated for 3 days by MTT assay; type: functional, cell-based; details: time 3.0 day
[9] = target: Aurora kinase B (Homo sapiens) (UniProt Q96GD4); assay: Inhibition of AURKB in human RPE-MYC cells expressing BCL2 assessed as inhibition of histone H3 phosphorylation at Ser10 residue at 40 nM measured after 6 hrs by immunofluorescence staining analysis; type: cell-based
[10] = Oral bioavailability in Wistar rat at 20 mg/kg measured for 24 hrs by LC-MS/MS analysis; type: ADME, organism-based; details: in vivo
[11] = Ratio of AUC (0 to 6 hrs) in BALB/c nude mouse xenografted with human HCT-116 cells at 50 mg/kg, po bid for 7 days to AUC (0 to 6 hrs) in BALB/c nude mouse xenografted with human HCT-116 cells administered as single dose; type: ADME, organism-based; details: in vivo
[12] = Lipophilicity, log D of the compound in Octanol and PBS buffer at pH 7.4 incubated for 24 hrs under shaking condition followed by incubation for 1 hr without shaking by LC-MS analysis; type: physicochemical
[13] = Apparent volume of distribution in Wistar rat at 2 mg/kg, iv measured after 24 hrs by LC-MS/MS analysis; type: ADME, organism-based; details: in vivo, read-out: Vz
[14] = Half life in Wistar rat at 2 mg/kg, iv measured for 24 hrs by LC-MS/MS analysis; type: ADME, organism-based; details: in vivo
[15] = target: Rho-associated protein kinase 1 (Homo sapiens) (UniProt Q13464); assay: Inhibition of ROCK1 (unknown origin) by bio-chip based analysis
Sequence of Rho-associated protein kinase 1 (Homo sapiens) (Q13464 2-1354 limits assumed): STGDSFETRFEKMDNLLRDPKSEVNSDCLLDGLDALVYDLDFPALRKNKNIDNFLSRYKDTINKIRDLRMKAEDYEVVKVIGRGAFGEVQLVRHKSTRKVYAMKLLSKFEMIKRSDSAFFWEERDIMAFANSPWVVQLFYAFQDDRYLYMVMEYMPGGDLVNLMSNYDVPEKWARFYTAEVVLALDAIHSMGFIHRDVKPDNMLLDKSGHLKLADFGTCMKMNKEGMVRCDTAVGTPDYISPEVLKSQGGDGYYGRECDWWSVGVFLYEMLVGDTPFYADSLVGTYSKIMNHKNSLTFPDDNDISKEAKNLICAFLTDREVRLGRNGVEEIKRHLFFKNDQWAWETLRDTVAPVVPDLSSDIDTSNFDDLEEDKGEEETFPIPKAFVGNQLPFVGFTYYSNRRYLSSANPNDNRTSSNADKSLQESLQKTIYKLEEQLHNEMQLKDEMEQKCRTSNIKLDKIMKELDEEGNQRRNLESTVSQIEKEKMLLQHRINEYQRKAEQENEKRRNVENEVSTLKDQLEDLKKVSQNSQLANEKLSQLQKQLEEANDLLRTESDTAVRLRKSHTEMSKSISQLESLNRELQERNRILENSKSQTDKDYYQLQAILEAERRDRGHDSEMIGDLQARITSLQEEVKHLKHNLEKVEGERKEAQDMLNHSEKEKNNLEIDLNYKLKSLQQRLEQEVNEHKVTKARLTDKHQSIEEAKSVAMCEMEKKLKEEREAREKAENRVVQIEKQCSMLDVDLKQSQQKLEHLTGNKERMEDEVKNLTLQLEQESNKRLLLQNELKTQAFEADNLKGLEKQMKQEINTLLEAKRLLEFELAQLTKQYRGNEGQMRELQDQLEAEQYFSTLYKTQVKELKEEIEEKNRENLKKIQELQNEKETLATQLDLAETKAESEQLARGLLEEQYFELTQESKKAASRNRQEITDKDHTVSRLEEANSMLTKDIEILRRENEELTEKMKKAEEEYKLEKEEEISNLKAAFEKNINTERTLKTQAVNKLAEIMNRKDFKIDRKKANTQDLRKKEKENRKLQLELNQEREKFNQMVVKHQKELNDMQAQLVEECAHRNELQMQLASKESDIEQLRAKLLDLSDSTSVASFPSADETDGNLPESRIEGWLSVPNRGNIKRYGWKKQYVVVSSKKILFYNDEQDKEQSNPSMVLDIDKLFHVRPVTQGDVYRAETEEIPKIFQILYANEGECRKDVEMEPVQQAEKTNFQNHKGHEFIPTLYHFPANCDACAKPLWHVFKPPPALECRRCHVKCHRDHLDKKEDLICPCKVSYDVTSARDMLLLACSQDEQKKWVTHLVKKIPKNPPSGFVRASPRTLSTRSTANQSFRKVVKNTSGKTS

[16] = target: Aurora kinase B (Homo sapiens) (UniProt Q96GD4); assay: Disruption of mitotic localization of AURKB in human RPE-MYC H2B-GFP cells assessed as induction of polyploidy by fluorescence high content cell imaging analysis relative to control; type: cell-based
[17] = target: Aurora kinase B (Homo sapiens) (UniProt Q96GD4); assay: Disruption of mitotic localization of AURKB in human RPE-MYC cells expressing BCL2 assessed as mitotic index at 40 nM measured after 6 hrs by fluorescence high content cell imaging analysis (reference value: 5.3%); type: cell-based
[18] = Plasma concentration in BALB/c nude mouse xenografted with human HCT-116 cells administered as single dose and measured after 6 hrs by LC-MS/MS analysis; type: ADME
MDA-MB-231 = assay: Cytotoxicity against human MDA-MB-231 cells assessed as cell growth inhibition incubated for 3 days by MTT assay; type: functional, cell-based; details: time 3.0 day
[19] = Toxicity in BALB/c nude mouse xenografted with human HCT-116 cells assessed as body weight at 50 mg/kg, po bid for 7 days; type: organism-based; details: in vivo, 168 h, time 7 day
[20] = target: Mitotic checkpoint serine/threonine-protein kinase BUB1 (Homo sapiens) (UniProt O43683); assay: Inhibition of Bub1 (unknown origin) by bio-chip based analysis
Sequence of Mitotic checkpoint serine/threonine-protein kinase BUB1 (Homo sapiens) (O43683 whole entry, looked up): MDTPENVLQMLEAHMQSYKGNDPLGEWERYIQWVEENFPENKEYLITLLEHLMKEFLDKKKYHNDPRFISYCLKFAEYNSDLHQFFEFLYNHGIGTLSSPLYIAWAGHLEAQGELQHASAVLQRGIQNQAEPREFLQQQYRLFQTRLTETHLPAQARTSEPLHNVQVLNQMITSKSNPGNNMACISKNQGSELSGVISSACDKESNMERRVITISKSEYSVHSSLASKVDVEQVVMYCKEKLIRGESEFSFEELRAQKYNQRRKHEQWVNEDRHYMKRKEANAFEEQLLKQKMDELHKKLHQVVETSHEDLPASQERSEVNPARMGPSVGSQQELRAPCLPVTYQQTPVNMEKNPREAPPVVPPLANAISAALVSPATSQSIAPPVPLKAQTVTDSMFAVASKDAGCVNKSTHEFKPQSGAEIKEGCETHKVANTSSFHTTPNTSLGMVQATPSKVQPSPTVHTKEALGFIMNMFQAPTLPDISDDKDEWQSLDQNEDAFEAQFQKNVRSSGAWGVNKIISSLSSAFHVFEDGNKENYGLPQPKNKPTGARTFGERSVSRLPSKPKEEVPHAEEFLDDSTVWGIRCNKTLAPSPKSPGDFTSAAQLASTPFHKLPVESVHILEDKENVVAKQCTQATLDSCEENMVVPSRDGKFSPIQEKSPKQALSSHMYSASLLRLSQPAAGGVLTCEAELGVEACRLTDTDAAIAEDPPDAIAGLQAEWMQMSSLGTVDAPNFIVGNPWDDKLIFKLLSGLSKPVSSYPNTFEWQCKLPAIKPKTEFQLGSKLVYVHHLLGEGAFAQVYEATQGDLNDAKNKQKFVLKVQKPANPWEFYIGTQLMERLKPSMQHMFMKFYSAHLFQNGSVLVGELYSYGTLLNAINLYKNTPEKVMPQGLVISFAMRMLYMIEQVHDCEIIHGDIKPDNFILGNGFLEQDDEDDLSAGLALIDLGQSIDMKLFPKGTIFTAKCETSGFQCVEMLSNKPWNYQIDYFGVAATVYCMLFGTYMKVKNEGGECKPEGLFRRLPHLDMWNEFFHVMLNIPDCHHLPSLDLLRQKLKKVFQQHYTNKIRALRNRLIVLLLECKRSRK

[21] = target: Aurora kinase B (Homo sapiens) (UniProt Q96GD4); assay: Inhibition of AURKB (unknown origin) by bio-chip based analysis
[22] = target: Aurora kinase B (Homo sapiens) (UniProt Q96GD4); assay: Disruption of mitotic localization of AURKB in human RPE-MYC cells expressing BCL2 assessed as disruption of PLK1 localization at centrosome during prophase at 40 nM measured after 6 hrs by immunofluorescence staining analysis; type: cell-based
[23] = tested on: Tyrosine-protein kinase ABL1 (Homo sapiens), P00519 [H396P]; assay: Inhibition of human recombinant ABL1 H396P mutant at 2 uM by KINOMEscan assay
[24] = Clearance in Wistar rat at 20 mg/kg, po measured for 24 hrs by LC-MS/MS analysis; type: ADME, organism-based; details: in vivo
[25] = target: Tyrosine-protein kinase ABL1 (Homo sapiens) (UniProt P00519); assay: Inhibition of human recombinant ABL1 at 2 uM by KINOMEscan assay
[26] = Toxicity in BALB/c nude mouse xenografted with human HCT-116 cells assessed as animal's well being at 50 mg/kg, po bid for 7 days; type: organism-based; details: in vivo, 168 h, time 7 day
[27] = Plasma concentration in BALB/c nude mouse xenografted with human HCT-116 cells at 50 mg/kg, po bid for 7 days and measured at 12 hrs post-last drug administration by LC-MS/MS analysis; type: ADME, organism-based; details: time 7 day
[28] = MRT (0 to infinity) in Wistar rat at 20 mg/kg, po by LC-MS/MS analysis; type: ADME, organism-based; details: in vivo
[29] = target: Aurora kinase B (Homo sapiens) (UniProt Q96GD4); assay: Disruption of kinetochore localization of AURKB during prophase of human RPE-MYC cells expressing BCL2 at 40 nM measured after 6 hrs by immunofluorescence staining analysis; type: cell-based
[30] = target: Aurora kinase B (Homo sapiens) (UniProt Q96GD4); assay: Disruption of mitotic localization of AURKB in human RPE-MYC H2B-GFP cells assessed as induction of mitotic arrest measured after 24 hrs by fluorescence high content cell imaging analysis; type: cell-based

## COc1cc(NC(C)=O)cc(Oc2ccnc3ccc(OC)cc23)c1
NCI-N87
  Activity: Active
[1]
  metabolised at 2 h, up to 10 µM: 0%
[2]
  clearance: 29.3 mL/min/kg
[3]
  Cmax: 3140 ng/mL
SW480
  Activity: Active
[4]
  MEC: 0.01 µM
A549
  Activity: Active
[5]
  Ratio: 70
Mus musculus
  fold change (FC): 6.7
[6]
  AUC/dose: 517.74 ng·h/mL/mg/kg
[7]
  Activity: Active
[8]
  metabolised at 2 h, up to 10 µM: 0%
HCT-116
  Activity: Active
[9]
  inhibition: inactive
[10]
  bioavailability: 27.6%
[11]
  Ratio: 2
[12]
  logD at 25 h: 3.81
[13]
  Vd: 2.78 L/kg
[14]
  half-life: 1.09 h
[15]
  inhibition: inactive
[16]
  Activity: 100%
[17]
  Activity: 15.3%
[18]
  concentration at 6 h: 213 ng/mL
MDA-MB-231
  Activity: Active
[19]
  Activity: Non-Toxic
[20]
  inhibition: inactive
[21]
  inhibition: inactive
[22]
  Activity: inactive
[23]
  inhibition: Active
[24]
  CL/F: 54.7 mL/min/kg
[25]
  inhibition: Active
[26]
  Activity: Non-Toxic
[27]
  concentration at 168 h: 3.27 ng/mL
[28]
  MRT inf: 2.83 h
[29]
  Activity: inactive
[30]
  MEC: 0.01 µM

— ChEMBL document CHEMBL5241130, “Integrating a phenotypic screening with a structural simplification strategy to identify 4-phenoxy-quinoline derivatives to potently disrupt the mitotic localization of Aurora kinase B” (Bioorg Med Chem, 2023)
